Results reported in ChEMBL document CHEMBL1133460, “Synthesis and biological evaluation of certain alpha,beta-unsaturated ketones and their corresponding fused pyridines as antiviral and cytotoxic agents” (J Med Chem, 2000).
Converted amounts (≈) assume the structure as drawn. “And” between values parts separate entries of the source, which are not always exact repeats. Equal values may be shown once.

How the values were obtained:
[1] = tested on: Panel CNS (Carcinoma cell lines); assay: In vitro median growth inhibitory concentration against CNS cancer cell lines; assay type: functional; conditions: Homo sapiens
[2] = tested on: Panel leukemia (Carcinoma cell lines); assay: In vitro median growth inhibitory conc. against leukemia was estimated.; assay type: functional; conditions: Homo sapiens
[3] = organism: Homo sapiens; assay: Selectivity ratio between the full panel MG-MID and leukemia subpanel MG-MID was determined.; assay type: functional
[4] = tested on: Panel melanoma (Carcinoma cell lines); assay: In vitro median growth inhibitory concentration against melanoma cell lines; assay type: functional; conditions: Homo sapiens
[5] = tested on: Panel renal (Carcinoma cell lines); assay: In vitro median growth inhibitory concentration against renal cancer cell lines; assay type: functional; conditions: Homo sapiens
[6] = tested on: Panel prostate (Carcinoma cell lines); assay: In vitro median growth inhibitory concentration against prostate cancer cell lines; assay type: functional; conditions: Homo sapiens
[7] = In vitro median growth inhibitory concentration against colon cancer cell lines; assay type: functional; conditions: Homo sapiens
[8] = tested on: Human immunodeficiency virus 1; assay: In vitro effective concentration against HIV-1 cytopathic effect in T4 cells; Inactive; assay type: functional, organism-based
[9] = tested on: MT4; assay: In vitro inhibitory activity against uninfected T4 cells; assay type: functional, cell-based; conditions: Homo sapiens
[10] = tested on: Ovarian cancer cell line; assay: In vitro median growth inhibitory concentration against ovarian cancer cell lines; assay type: functional; conditions: Homo sapiens
[11] = tested on: Tumor cell line; assay: (§1) In vitro median growth inhibitory concentration against breast cancer cell lines; assay type: functional; conditions: Homo sapiens
[12] = tested on: NSCLC; assay: In vitro median growth inhibitory concentration against non-small-cell lung cancer; assay type: functional; conditions: Homo sapiens
[13] = Full panel mean-graph midpoint (MG-MID)
[14] = tested on: Human alphaherpesvirus 1; assay: 50% loss of the monolayer present around the viral plaques in uM; assay type: functional, organism-based
[15] = tested on: Tumor cell line; assay: In vitro growth inhibitory concentration against non-small-cell lung cancer cell lines; assay type: functional; conditions: Homo sapiens
[16] = tested on: Human alphaherpesvirus 1; assay: concentration caused 50% loss of the monolayer present around the viral plaques in ug/mL.; assay type: functional, organism-based
[17] = tested on: Breast cancer cell line; assay: In vitro growth inhibitory concentration against breast cancer cell lines; assay type: functional; conditions: Homo sapiens
[18] = tested on: Panel renal (Carcinoma cell lines); assay: In vitro growth inhibitory concentration against renal cancer cell lines; assay type: functional; conditions: Homo sapiens
[19] = tested on: Human alphaherpesvirus 1; assay: In vitro antiviral activity against Herpes Simplex-1 virus (HSV-1) expressed as percent reduction in the number of viral plaques; assay type: functional; design: concentration or dose not given beside the values
[20] = tested on: Panel prostate (Carcinoma cell lines); assay: In vitro growth inhibitory concentration against prostate cancer cell lines; assay type: functional; conditions: Homo sapiens
[21] = tested on: Breast cancer cell line; assay: as §1; assay type: functional; conditions: Homo sapiens
[22] = tested on: Panel leukemia (Carcinoma cell lines); assay: In vitro growth inhibitory concentration against leukemia tumor cell lines; assay type: functional; conditions: Homo sapiens
[23] = tested on: Human alphaherpesvirus 1; assay: Minimum antiviral concentration proved to be lethal to viral population in ug/mL.; assay type: functional
[24] = tested on: Panel melanoma (Carcinoma cell lines); assay: In vitro growth inhibitory concentration against melanoma cancer cell lines; assay type: functional; conditions: Homo sapiens
[25] = tested on: Human alphaherpesvirus 1; assay: Minimum antiviral concentration proved to be lethal to viral population in uM; assay type: functional
[26] = tested on: Ovarian cancer cell line; assay: In vitro growth inhibitory concentration against ovarian cancer cell lines; assay type: functional; conditions: Homo sapiens
[27] = In vitro growth inhibitory concentration against colon cancer tumor cell lines; assay type: functional; conditions: Homo sapiens
[28] = tested on: Panel CNS (Carcinoma cell lines); assay: In vitro growth inhibitory concentration against CNS cancer cell lines; assay type: functional; conditions: Homo sapiens

COc1ccc(/C=C2\CN(C)CC3C2=NN(c2ccccc2)C3c2ccc(OC)cc2)cc1 (stereo not given)
GI50 [1]: 63.1 µM
GI50 [2]: > 100 µM
Ratio [3]: 0.7
GI50 [4]: 77.7 µM
GI50 [5]: 54.7 µM
GI50 [6]: > 100 µM
GI50 [7]: > 100 µM
EC50 [8]: Not Active
IC50 [9]: > 200 µM
GI50 [10]: 80.7 µM
GI50 [11]: 91.8 µM
GI50 [12]: 82.1 µM
MG-MID [13]: 72.9 µM

Cc1ccc(/C=C2\CN(C)CC3=C2N=C(S)NC3c2ccc(C)cc2)cc1 (stereo not given)
GI50 [1]: 53.7 µM
IC50 [14]: 0.19 µM
GI50 [2]: 19.2 µM
Ratio [3]: 1.8
TGI [15]: 89.9 µM
GI50 [4]: 58.8 µM
IC50 [16]: 0.07 mg/L (≈ 0.186 µM)
TGI [17]: 88.8 µM
GI50 [5]: 60.8 µM
TGI [18]: 96.9 µM
GI50 [6]: 38.3 µM
Reduction [19]: 45%
GI50 [7]: 37.1 µM
EC50 [8]: Not Active
IC50 [9]: 27.6 µM
GI50 [10]: 51.2 µM
TGI [20]: > 100 µM
GI50 [21]: 39.4 µM
GI50 [12]: 59.6 µM
TGI [22]: 62.3 µM
MAC [23]: 0.1 µg/mL
TGI [24]: > 100 µM
MAC [25]: 0.27 µM
TGI [26]: 94 µM
TGI [27]: 83.6 µM
TGI [28]: 94.1 µM
MG-MID [13]: 34.5 µM and 86.5 µM
